Where a SMILES comes first, the peptide text is derived from it. [ ]: non-standard residue; d: D form. Dmt = Cc1cc(O)cc(C)c1C[C@H](N)C(=O)O
What was measured:
[1] = test system: healthy (GM08402; Coriell) fibroblasts; assay: Cytoprotection assay, RSL3-induced ferroptosis, healthy fibroblasts (CellTiter-Glo cell viability); type: cell-based, human; settings: healthy patient derived fibroblasts; 18 hour pre-incubation with test compounds 0.001 uM to 1 uM; then 1 uM RSL3 for 4 hours; FIG. 1
Experimental: (§1) To initiate the cytoprotection experiment, healthy (GM08402; Coriell) and FA (GM03665; Coriell) fibroblasts were resuspended in assay medium (Minimum Essential Medium Eagle w/Earles Salts and L-glutamine (MEM; Corning)+15% Qualified Fetal Bovine Serum (FBS)+penicillin (100 U)/streptomycin ([…]), seeded at 10,000 cells per well in a clear, tissue cultured treated 96 well plate), and incubated at 37° C. Eight hours later, the assay medium was manually removed and test compounds, elamipretide (Stealth Biotherapeutics Inc., Needham, MA) and omaveloxolone were added to a final volume of 100 uL at concentrations ranging between 0.001 uM and 1 uM. Following an 18 hour incubation at 37° C., the assay medium was again manually removed. Healthy fibroblasts and FA fibroblasts were then treated with 100 μL of 1 uM and 0.5 uM RSL3 (Sigma, Catalog #1219810), respectively, in assay medium for 4 hours at 37° C. Cell viability was assessed with CellTiter-Glo Luminescent Cell Viability (Promega). Luminescence units were quantified by GEN5 software on a BioTek SYNERGY neo2 plate reader (LUM filter). The data obtained for the health cells are graphically illustrated in FIG. 1 and the data obtained for the FA fibroblasts are graphically illustrated in FIG. 2. […]

[2] = test system: FA (GM03665; Coriell) fibroblasts; assay: Cytoprotection assay, RSL3-induced ferroptosis, FA fibroblasts (CellTiter-Glo cell viability); type: cell-based, human; settings: FA patient derived fibroblasts; 18 hour pre-incubation with test compounds 0.001 uM to 1 uM; then 0.5 uM RSL3 for 4 hours; FIG. 2
Experimental: as §1

| Structure (SMILES) | protective/rescue effect on the RSL3 treated cells (cell viability) [1] | protective/rescue effect on the RSL3 treated cells (cell viability) [2] |
| --- | --- | --- |
| Cc1cc(O)cc(C)c1C[C@H](NC(=O)[C@H](N)CCCNC(=N)N)C(=O)N[C@@H](CCCCN)C(=O)N[C@@H](Cc1ccccc1)C(N)=O [elamipretide, H-D-Arg-2′,6′Dmt-Lys-Phe-NH2] (H-[dR][Dmt]KF-NH2) | no apparent effect | no apparent effect |
| CC1(C)CC[C@]2(NC(=O)C(C)(F)F)CC[C@]3(C)[C@H](C(=O)C=C4[C@@]5(C)C=C(C#N)C(=O)C(C)(C)[C@@H]5CC[C@]43C)[C@@H]2C1 [omaveloxolone, Omaveloxolone] | significant protective/rescue effect | significant protective/rescue effect |

— US20250025526A1, “COMBINATION THERAPY FOR THE TREATMENT OF FRIEDREICH'S ATAXIA” (Stealth BioTherapeutics Inc., priority 2023, published 2025)
